Test results reported in patent US12318435B2, “Recombinant protein produced from cholinesterase gene derived from Pseudomonas aeruginosa and the composition comprising the same for treating or preventing a neurological disease” (priority 2019, dated 2025).

Key:
Assay type in all cases: in vivo
[1] = tested on: ACHE activity; test: Serum ACHE activity of pesticide-exposed mice; settings: serum of the mice of Experimental Example 2; for ACHE activity, Concentration (mU/mL): 25° C., 570 nm
Experimental: (§1) Specific pathogen-free female ICR mice (about 20 g, aged 6 weeks) were purchased from ORIENT Co. (Seoul, Korea) and acclimated with the experimental environment for 1 week.
(§2) The mice used in Experimental Example 2 intraperitoneally injected with […] of NP protein as a test sample group, were killed with carbon dioxide gas (Shinyang Oxygen Industry, Korea) and the blood was collected from the heart to isolate the serum.
30 mins after the reaction, the absorbance of the reaction solution was determined at every 1 min at 570 nm using by spectrometer (Multiskan Go., Thermo Scientific) and the determined level was calculated according to following Math. […] [Math. 2] 4-2. Test Result

[2] = tested on: choline; test: Blood level of choline in pesticide-exposed animal model; settings: serum of the mice of Experimental Example 2; for Level of blood acetylcholine, Concentration: absorbance 570 nm
Experimental: In order to determine the effect on the blood level of choline of the inventive NP protein in pesticide-exposed animal model, following test was performed by the procedure disclosed in the literature (Choline/Acetylcholine Quantification Colorimetric/Fluorometric Kit, Biovision incorporated 155 S Milpitas Boulevard, Milpitas, Calif. 95035 USA).
as §1, §2
The choline level of blood serum was determined Choline/Acetylcholine Quantification Colorimetric/Fluorometric Kit (Cat. No. K615-100, Biovision).
1 μL of serum was added to 49 μL of buffer solution in the kit and the reaction mixture containing […] of buffer solution, 2 μL of choline probe, 2 μL of ACHE and 2 μL of enzyme mixture solution was added thereto to react together in the shadow at 25° C. for 30 mins.
30 mins after the reaction, the absorbance of the reaction solution was determined at 570 nm using by spectrometer (Multiskan Go., Thermo Scientific) and the determined level was transformed into absolute value by comparing with the level of standard curve.
The level of choline was calculated according to following Math. 1 Blood Level of choline(nmole/mL or micromole)=(calculated level of choline through standard curve)/(the amount of samples in each well;mL). [Math. 1] 3-2. Test Result

[3] = tested on: ICR mice; test: Survival rate in pesticide-exposed animal model; settings: female ICR mice, intraperitoneal; 250 μg NP protein, 30 μg carbofuran, 9 mg trichlorfon; NP 40 mins before pesticide; survival observed for 30 mins
Experimental: In order to determine the survival rate of the inventive NP protein on pesticide-exposed animal model, following test was performed by the procedure disclosed in the literature (Gupta, Ramesh C., ‘Carbofuran toxicity’, Journal of Toxicology and Environmental Health, Part A, 43:4, pp 383-418, 1994).
as §1
250 μg of NP protein was intraperitoneally injected to the mice as a test sample group to observe the behavior of the mice for 40 mins and 30 μg of carbofuran and 9 mg of trichlorfon were intraperitoneally injected to the mice to observe the survival rate of the mice for 30 mins.
The group intraperitoneally injected with only 30 μg of carbofuran or 9 mg of trichlorfon were used as positive control groups to observe the survival rate of the mice and the group intraperitoneally injected with only distilled water […] was used as a negative control group to observe the survival rate of the mice.

| Compound | ACHE activity compared with negative control group (in words) [1] | ACHE activity, Concentration (mU/mL) [1] | amount of acetylcholine (in words) [2] | Level of blood acetylcholine, Concentration [2] | Survival rate (%) [3] |
| --- | --- | --- | --- | --- | --- |
| CNC(=O)Oc1cccc2c1OC(C)(C)C2 [Carbofuran] | decreased ACHE activity | 463.8 mU/mL | sharply increased amount of acetylcholine | 1.8 nmol/mL | 0% |
| COP(=O)(OC)C(O)C(Cl)(Cl)Cl (stereo not shown) [Trichlorfon, trichlorfon] | decreased ACHE activity | 117.7 mU/mL | sharply increased amount of acetylcholine | 1.4 nmol/mL | 60% |
